Measurements published in PMC11873611 (Acta Pharmaceutica Sinica. B, 2024).
Substitutions are numbered along the chain they refer to.

Assays:
PGAM5 [1] = molecular target: T1, PGAM5 (Homo sapiens, UniProt Q96HS1); test: SPR; assay type: binding
T1 sequence (Q96HS1 22-289): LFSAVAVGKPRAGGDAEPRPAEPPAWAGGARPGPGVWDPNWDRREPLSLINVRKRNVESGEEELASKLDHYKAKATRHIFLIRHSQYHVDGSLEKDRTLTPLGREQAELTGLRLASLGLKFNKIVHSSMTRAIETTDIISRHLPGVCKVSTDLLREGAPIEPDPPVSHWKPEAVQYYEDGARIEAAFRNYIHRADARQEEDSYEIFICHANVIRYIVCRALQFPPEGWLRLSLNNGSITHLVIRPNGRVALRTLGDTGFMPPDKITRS

PGAM5 [2] = molecular target: T2, PGAM5 (Homo sapiens, UniProt Q96HS1, C229A); test: in vitro PGAM5 phosphatase assay; assay type: biochemical
T2 sequence (Q96HS1 22-289 C229A): T1 sequence (Q96HS1 22-289) with C208A

PGAM5 [3] = molecular target: T3, PGAM5 (Homo sapiens, UniProt Q96HS1, C168A); test: in vitro PGAM5 phosphatase assay; assay type: biochemical
T3 sequence (Q96HS1 22-289 C168A): T1 sequence (Q96HS1 22-289) with C147A

PGAM5 [4] = molecular target: T1, PGAM5; test: SPR; assay type: binding; remark: listed apart in the source
PGAM5 [5] = molecular target: T4, PGAM5 (Mus musculus, UniProt Q8BX10); test: DARTS, CETSA and SIP target engagement in BMDMs; assay type: cell-based
T4 sequence (Q8BX10 1-288): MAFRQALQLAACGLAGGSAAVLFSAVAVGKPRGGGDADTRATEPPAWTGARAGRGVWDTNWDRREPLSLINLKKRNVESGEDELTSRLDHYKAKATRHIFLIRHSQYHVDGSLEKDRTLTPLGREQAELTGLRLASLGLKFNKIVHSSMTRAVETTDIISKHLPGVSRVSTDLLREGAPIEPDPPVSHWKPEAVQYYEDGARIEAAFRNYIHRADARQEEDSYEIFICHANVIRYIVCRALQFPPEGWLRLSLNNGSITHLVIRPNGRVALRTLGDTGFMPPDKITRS

Structure (SMILES)	SPR (Fig. S9L and S9M) (PGAM5 [1])	in vitro PGAM5 phosphatase assay (phosphopeptide, BIOMOL Green) (PGAM5 [2])	in vitro PGAM5 phosphatase assay (phosphopeptide, BIOMOL Green) (PGAM5 [3])	Kd (PGAM5 [4]) [nM]	DARTS, CETSA and SIP target engagement in BMDMs (PGAM5 [5])
O=C1OC[C@H]2OC(O)[C@H](O)[C@@H](O)[C@@H]2OC(=O)c2cc(O)c(O)c(O)c2-c2c(O)c(O)c3oc(=O)c4c(c(O)c(O)c5oc(=O)c2c3c54)-c2c1cc(O)c(O)c2O (mixture of isomers) [punicalin]	there was a similar direct interaction between punicalin and ΔN21 PGAM5 or ΔN90 PGAM5 compared with punicalagin				
O=C1O[C@H]2[C@@H]3OC(=O)c4cc(O)c(O)c(O)c4-c4c(O)c(O)c5oc(=O)c6c(c(O)c(O)c7oc(=O)c4c5c76)-c4c(cc(O)c(O)c4O)C(=O)OC[C@H]3OC(O)[C@@H]2OC(=O)c2cc(O)c(O)c(O)c2-c2c1cc(O)c(O)c2O (mixture of isomers) [punicalagin]		punicalagin still inhibited the phosphatase activity of PGAM5 C168A or C229A protein mutant	punicalagin still inhibited the phosphatase activity of PGAM5 C168A or C229A protein mutant	~0.3	punicalagin significantly restrained the proteolysis of PGAM5 by pronase, further supporting that punicalagin could bind to PGAM5 in BMDMs
